Test system: 8×TBD luciferase reporter (YAP) in HEK293T cells
Assay: YAP Reporter Assay (8×TBD firefly luciferase reporter)
Format: cell-based
Conditions: Homo sapiens, HEK-293T; HEK293T cells stably transfected with 8×TBD luciferase reporter and pRLTK; 24-hr incubation; firefly luciferase activity; read-out: Firefly Luciferase IC50
How it was run: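 Stably transfected HEK293T cells (8×TBD firefly luciferase plus TK-renilla) were dosed with 10-point 1:3 dilutions from 3 μM final, quadruplicates, for 24 h at 37 °C. Dual-Glo read firefly and renilla luminescence; IC50 and maximal inhibition reported separately for each.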

SMILES	IC50 [nM]
C[C@@H](NC(=O)c1ccc2c(Oc3ccc(C(F)(F)F)cc3)cccc2c1)c1cn(C)cn1 [Compound 91, N-[(1R)-1-(1-methylimidazol-4-yl)ethyl]-5-[4-(trifluoromethyl)phenoxy]naphthalene-2-carboxamide]	< 100
C[C@H](NC(=O)c1cnc2c(Oc3ccc(C(F)(F)F)cc3)cccc2c1)c1cccc2nc[nH]c12 [Compound 104, (S)—N-(1-(1H-benzo[d]imidazol-7-yl)ethyl)-8-(4-(trifluoromethyl)phenoxy)quinoline-3-carboxamide]	< 100
C[C@@H](NC(=O)c1ccc2c(Oc3ccc(C(F)(F)F)cc3)cccc2c1)c1ncc[nH]1 [Compound 64, (R)—N-(1-(1H-imidazol-2-yl)ethyl)-5-(4-(trifluoromethyl)phenoxy)-2-naphthamide]	< 100
C[C@@H](NC(=O)c1ccc2c(Oc3ccc(C(F)(F)F)cc3)cccc2c1)c1cnccn1 [Compound 46, (R)—N-(1-(pyrazin-2-yl)ethyl)-5-(4-(trifluoromethyl)phenoxy)-2-naphthamide]	< 100
O=C(NC(CO)c1ccccn1)c1cnc2c(Oc3ccc(C(F)(F)F)cc3)cccc2c1 (stereo not shown) [Compound 14, N-[2-hydroxy-1-(2-pyridyl)ethyl]-8-[4-(trifluoromethyl)phenoxy]quinoline-3-carboxamide]	< 100
C[C@H](CO)NC(=O)c1cnc2c(Oc3ccc(C(F)(F)F)cc3)cccc2c1 [Compound 15, N-[(1R)-2-hydroxy-1-methyl-ethyl]-8-[4-(trifluoromethyl)phenoxy]quinoline-3-carboxamide]	< 100
C[C@@H](NC(=O)c1ccc2c(Oc3ccc(C(F)(F)F)cc3)cccc2c1)c1cccnc1N [Compound 79, (R)—N-(1-(2-aminopyridin-3-yl)ethyl)-5-(4-(trifluoromethyl)phenoxy)-2-naphthamide]	1000 to 3000
C[C@@H](NC(=O)c1ccc2c(Oc3ccc(C(F)(F)F)cc3)cccc2c1)C1CCN(CCO)CC1 [Compound 153, (R)-N-(1-(1-(2-hydroxyethyl)piperidin-4-yl)ethyl)-5-(4-(trifluoromethyl)phenoxy)-2-naphthamide]	100 to 1000
O=C(N[C@H](CCO)c1ccccn1)c1ccc2c(Oc3ccc(C(F)(F)F)cc3)cccc2c1 [Compound 109, (R)—N-(3-hydroxy-1-(pyridin-2-yl)propyl)-5-(4-(trifluoromethyl)phenoxy)-2-naphthamide]	100 to 1000
O=C(N[C@H](CO)c1ccccn1)c1ccc2c(Oc3ccc(C(F)(F)F)cc3)cccc2c1 [Compound 119, (S)—N-(2-hydroxy-1-(pyridin-2-yl)ethyl)-5-(4-(trifluoromethyl)phenoxy)-2-naphthamide]	< 100
C[C@H](NC(=O)c1ccc2c(Oc3ccc(C(F)(F)F)cc3)cccc2c1)c1cn(C)cn1 [Compound 92, N-[(1S)-1-(1-methylimidazol-4-yl)ethyl]-5-[4-(trifluoromethyl)phenoxy]naphthalene-2-carboxamide]	100 to 1000
C#CCCNC(=O)c1ccc2c(Oc3ccc(C(F)(F)F)cc3)cccc2c1 [Compound 21, N-(but-3-yn-1-yl)-5-(4-(trifluoromethyl)phenoxy)-2-naphthamide]	< 100
C[C@@H](NC(=O)c1cnc2c(Oc3ccc(C(F)(F)F)cc3)cccc2c1)c1cccc2ccsc12 [Compound 105, (R)—N-(1-(benzo[b]thiophen-7-yl)ethyl)-8-(4-(trifluoromethyl)phenoxy)quinoline-3-carboxamide]	100 to 1000
C[C@@H](CCN)NC(=O)c1ccc2c(Oc3ccc(C(F)(F)F)cc3)cccc2c1 [Compound 111, (S)—N-(4-aminobutan-2-yl)-5-(4-(trifluoromethyl)phenoxy)-2-naphthamide]	< 100
C[C@H](NC(=O)c1ccc2c(Oc3ccc(C(F)(F)F)cc3)cccc2c1)c1c[nH]cn1 [Compound 49, (S)—N-(1-(1H-imidazol-4-yl)ethyl)-5-(4-(trifluoromethyl)phenoxy)-2-naphthamide]	< 100
CCN1CCC([C@@H](C)NC(=O)c2ccc3c(Oc4ccc(C(F)(F)F)cc4)cccc3c2)CC1 [Compound 155, (R)-N-(1-(1-ethylpiperidin-4-yl)ethyl)-5-(4-(trifluoromethyl)phenoxy)-2-naphthamide]	100 to 1000
COC[C@@H](C)NC(=O)c1cnc2c(Oc3ccc(C(F)(F)F)cc3)cccc2c1 [Compound 16, N-[(1R)-2-methoxy-1-methyl-ethyl]-8-[4-(trifluoromethyl)phenoxy]quinoline-3-carboxamide]	100 to 1000
C[C@H](NC(=O)c1ccc2c(Oc3ccc(C(F)(F)F)cc3)cccc2c1)C1COC1 [Compound 41, (S)—N-(1-(oxetan-3-yl)ethyl)-5-(4-(trifluoromethyl)phenoxy)-2-naphthamide]	< 100
C[C@@H](NC(=O)c1ccc2c(Oc3ccc(C(F)(F)F)cc3)cccc2c1)C1CN(C2CC2)C1 [Compound 137, (R)—N-(1-(1-cyclopropylazetidin-3-yl)ethyl)-5-(4-(trifluoromethyl)phenoxy)-2-naphthamide]	< 100
C[C@H](NC(=O)c1ccc2c(Oc3ccc(C(F)(F)F)cc3)cccc2c1)C(N)=O [Compound 50, (S)—N-(1-amino-1-oxopropan-2-yl)-5-(4-(trifluoromethyl)phenoxy)-2-naphthamide]	< 100
CNCCNC(=O)c1ccc2c(Oc3ccc(C(F)(F)F)cc3)cccc2c1 [Compound 30, N-(2-(methylamino)ethyl)-5-(4-(trifluoromethyl)phenoxy)-2-naphthamide]	100 to 1000
C[C@H](CCN(C)C)NC(=O)c1ccc2c(Oc3ccc(C(F)(F)F)cc3)cccc2c1 [Compound 144, (R)-N-(4-(dimethylamino)butan-2-yl)-5-(4-(trifluoromethyl)phenoxy)-2-naphthamide]	< 100
